In PMC10818746, “Inhibition of CYP1A1 Alleviates Colchicine-Induced Hepatotoxicity” (Toxins, 2024):

Assays:
Type in all cases: in vitro ADME
Conditions in all cases: colchicine 25 µM, NADPH 1 mM, CYP 2 pmol/mL, PBS pH 7.4; mean ± SD (n = 2)
CYP2C9 = target: T1, CYP2C9 (Homo sapiens, UniProt P11712); test: Colchicine metabolism by cDNA-expressed recombinant CYP2C9
T1 construct: purchased Research Institute for Liver Diseases Co., Ltd. (Shanghai, China)
Procedure: (§1) Pre-cooled acetonitrile was used to terminate the reaction, and then centrifugation (4 °C, 12,000 rpm, 20 min) was performed to obtain the sample.
(§2) All samples were analyzed as shown in [17] and are briefly described in Supporting Information. […]
(§3) Supplementary materials and methods
(§4) Reference numbers refer to the main text list
(§5) UHPLC‐Q exactive plus MS Analysis
(§6) All samples were analyzed on a liquid chromatography system including a Vanquish autosampler, Vanquish detector, Vanquish pump (Thremo Fisher Scientific, Santa Clara, CA). Samples were separated on an ACQUITY UPLC HSS T3 column (2.1×100 mm, […], Waters, USA). The injection volume: 5 μL, and the flow rate was 0.3 mL/min.
(§7) Phase A was H2O containing 0.01% formic acid, and phase B was acetonitrile containing 0.01% formic acid. The elution gradient was as follows: 0‐12 mi n, 2‐98% B; 12‐14 min, 2% A; 14‐16 min, 98% A. Other parameters are as follows: column temperature 45 ℃ , flow rate of collision gas and dry gas 9 L/min. Capillary voltage 3.5 kV, temperature 350 ℃ , atomizer pressure 35 psi. Vanquish UHPLC‐Q Exactive plus MS (Thermo Fisher, USA) was collected in both positive modes, operating in full scan mode with 60‐900 m/z. […]

CYP2A6 = target: T2, CYP2A6 (Homo sapiens, UniProt P11509); test: Colchicine metabolism by cDNA-expressed recombinant CYP2A6
T2 construct: purchased Research Institute for Liver Diseases Co., Ltd. (Shanghai, China)
Procedure: as §1, §2, §3, §4, §5, §6, §7

CYP2B6 = target: T3, CYP2B6 (Homo sapiens, UniProt P20813); test: Colchicine metabolism by cDNA-expressed recombinant CYP2B6
T3 construct: purchased Research Institute for Liver Diseases Co., Ltd. (Shanghai, China)
T3 sequence (P20813 1-491): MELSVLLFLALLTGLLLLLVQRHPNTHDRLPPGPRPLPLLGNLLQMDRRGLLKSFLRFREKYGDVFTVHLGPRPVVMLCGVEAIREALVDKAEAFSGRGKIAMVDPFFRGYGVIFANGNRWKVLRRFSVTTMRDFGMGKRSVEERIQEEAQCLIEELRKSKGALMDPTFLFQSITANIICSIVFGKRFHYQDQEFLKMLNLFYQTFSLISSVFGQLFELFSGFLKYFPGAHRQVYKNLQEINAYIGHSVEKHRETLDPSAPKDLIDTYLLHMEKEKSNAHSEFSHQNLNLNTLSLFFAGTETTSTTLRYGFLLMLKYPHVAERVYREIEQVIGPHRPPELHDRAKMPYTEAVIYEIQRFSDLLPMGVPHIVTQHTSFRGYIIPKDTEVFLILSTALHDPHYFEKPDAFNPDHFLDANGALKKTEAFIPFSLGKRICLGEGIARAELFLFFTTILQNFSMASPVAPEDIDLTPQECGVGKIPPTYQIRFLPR
Procedure: as §1, §2, §3, §4, §5, §6, §7

CYP3A4 = target: T4, CYP3A4 (Homo sapiens, UniProt P08684); test: Colchicine metabolism by cDNA-expressed recombinant CYP3A4
T4 construct: purchased Research Institute for Liver Diseases Co., Ltd. (Shanghai, China)
Procedure: as §1, §2, §3, §4, §5, §6, §7

CYP2C8 = target: T5, CYP2C8 (Homo sapiens, UniProt P10632); test: Colchicine metabolism by cDNA-expressed recombinant CYP2C8
T5 construct: purchased Research Institute for Liver Diseases Co., Ltd. (Shanghai, China)
T5 sequence (P10632 1-490): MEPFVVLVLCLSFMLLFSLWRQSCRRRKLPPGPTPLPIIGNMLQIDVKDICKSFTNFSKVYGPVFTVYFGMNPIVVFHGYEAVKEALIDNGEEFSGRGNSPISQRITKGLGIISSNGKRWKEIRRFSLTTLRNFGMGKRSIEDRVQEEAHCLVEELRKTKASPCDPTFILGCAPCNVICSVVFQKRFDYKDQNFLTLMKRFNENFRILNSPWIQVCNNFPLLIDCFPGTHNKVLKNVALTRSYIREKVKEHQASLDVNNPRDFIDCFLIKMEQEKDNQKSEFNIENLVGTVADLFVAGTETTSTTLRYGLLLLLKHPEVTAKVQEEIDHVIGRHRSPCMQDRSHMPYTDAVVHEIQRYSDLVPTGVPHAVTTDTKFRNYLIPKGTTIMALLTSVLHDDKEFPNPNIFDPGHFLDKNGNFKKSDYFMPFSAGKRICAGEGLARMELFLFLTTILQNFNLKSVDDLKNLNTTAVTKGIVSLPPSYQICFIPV
Procedure: as §1, §2, §3, §4, §5, §6, §7

CYP2D6 = target: T6, CYP2D6 (Homo sapiens, UniProt P10635); test: Colchicine metabolism by cDNA-expressed recombinant CYP2D6
T6 construct: purchased Research Institute for Liver Diseases Co., Ltd. (Shanghai, China)
Procedure: as §1, §2, §3, §4, §5, §6, §7

T6 sequence (P10635 whole entry): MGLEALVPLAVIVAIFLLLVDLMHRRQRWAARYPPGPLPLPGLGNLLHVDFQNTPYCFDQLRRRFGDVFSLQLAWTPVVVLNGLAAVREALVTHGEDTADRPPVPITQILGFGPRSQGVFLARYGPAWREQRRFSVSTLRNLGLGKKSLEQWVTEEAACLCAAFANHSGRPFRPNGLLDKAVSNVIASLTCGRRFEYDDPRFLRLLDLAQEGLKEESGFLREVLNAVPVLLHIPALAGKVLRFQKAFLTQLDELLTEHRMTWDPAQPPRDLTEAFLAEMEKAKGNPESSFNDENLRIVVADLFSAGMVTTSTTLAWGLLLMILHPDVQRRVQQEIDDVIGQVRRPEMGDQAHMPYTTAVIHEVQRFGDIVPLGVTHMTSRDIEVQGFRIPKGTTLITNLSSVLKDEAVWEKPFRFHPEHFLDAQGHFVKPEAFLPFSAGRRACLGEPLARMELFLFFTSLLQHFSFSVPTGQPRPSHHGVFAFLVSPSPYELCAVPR
T1 sequence (P11712 whole entry): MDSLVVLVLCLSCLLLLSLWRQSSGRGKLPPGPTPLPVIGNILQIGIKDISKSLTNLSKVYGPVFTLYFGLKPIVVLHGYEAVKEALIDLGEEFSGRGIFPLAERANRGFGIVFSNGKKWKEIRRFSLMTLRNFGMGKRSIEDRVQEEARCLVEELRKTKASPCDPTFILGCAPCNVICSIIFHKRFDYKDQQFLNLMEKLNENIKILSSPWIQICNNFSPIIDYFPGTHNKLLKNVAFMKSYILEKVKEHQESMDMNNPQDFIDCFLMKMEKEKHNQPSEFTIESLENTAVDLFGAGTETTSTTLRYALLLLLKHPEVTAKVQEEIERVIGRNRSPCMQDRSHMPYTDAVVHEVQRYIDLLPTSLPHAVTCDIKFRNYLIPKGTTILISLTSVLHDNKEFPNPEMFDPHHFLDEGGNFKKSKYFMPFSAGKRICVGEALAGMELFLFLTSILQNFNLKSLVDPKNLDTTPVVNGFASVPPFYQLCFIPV
T2 sequence (P11509 whole entry): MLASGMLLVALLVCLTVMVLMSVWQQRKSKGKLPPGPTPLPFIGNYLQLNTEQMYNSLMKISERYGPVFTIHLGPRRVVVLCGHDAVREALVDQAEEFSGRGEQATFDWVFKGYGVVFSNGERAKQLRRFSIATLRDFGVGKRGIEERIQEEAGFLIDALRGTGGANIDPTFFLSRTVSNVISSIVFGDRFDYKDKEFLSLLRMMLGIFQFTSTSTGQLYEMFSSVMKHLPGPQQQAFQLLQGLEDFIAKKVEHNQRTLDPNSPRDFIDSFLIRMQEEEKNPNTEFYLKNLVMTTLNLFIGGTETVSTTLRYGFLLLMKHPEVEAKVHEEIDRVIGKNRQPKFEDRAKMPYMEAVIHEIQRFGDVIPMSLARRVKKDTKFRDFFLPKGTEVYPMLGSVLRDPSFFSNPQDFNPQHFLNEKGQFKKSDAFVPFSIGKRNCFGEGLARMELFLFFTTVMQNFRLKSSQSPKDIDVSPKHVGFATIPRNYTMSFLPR
T4 sequence (P08684 whole entry): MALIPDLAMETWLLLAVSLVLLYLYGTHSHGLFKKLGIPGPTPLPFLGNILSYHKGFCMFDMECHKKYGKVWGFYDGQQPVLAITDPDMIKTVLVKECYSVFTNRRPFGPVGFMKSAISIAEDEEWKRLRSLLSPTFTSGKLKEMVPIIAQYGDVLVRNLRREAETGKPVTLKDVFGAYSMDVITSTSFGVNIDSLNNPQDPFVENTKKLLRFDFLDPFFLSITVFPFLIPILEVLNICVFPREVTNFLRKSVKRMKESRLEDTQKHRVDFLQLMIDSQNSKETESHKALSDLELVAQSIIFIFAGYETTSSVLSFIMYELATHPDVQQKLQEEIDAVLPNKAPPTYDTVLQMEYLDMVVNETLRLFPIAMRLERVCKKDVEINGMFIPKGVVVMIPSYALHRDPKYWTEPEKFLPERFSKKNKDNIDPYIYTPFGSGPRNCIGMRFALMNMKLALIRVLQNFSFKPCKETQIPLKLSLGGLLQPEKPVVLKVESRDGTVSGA

SMILES: COc1cc2c(c(OC)c1OC)-c1ccc(OC)c(=O)cc1C=CC2 [M6]
- peak area of the metabolite after incubation with CYP2C9 as a percentage of the total peak areas from all the CYPs (CYP2C9): 7.33 ± 0.35%
- peak area of the metabolite after incubation with CYP2A6 as a percentage of the total peak areas from all the CYPs (CYP2A6): 8.25 ± 0.69%
- peak area of the metabolite after incubation with CYP2B6 as a percentage of the total peak areas from all the CYPs (CYP2B6): 9.86 ± 0.58%
- peak area of the metabolite after incubation with CYP3A4 as a percentage of the total peak areas from all the CYPs (CYP3A4): 6.55 ± 0.65%
- peak area of the metabolite after incubation with CYP2C8 as a percentage of the total peak areas from all the CYPs (CYP2C8): 6.90 ± 1.01%
- peak area of the metabolite after incubation with CYP2D6 as a percentage of the total peak areas from all the CYPs (CYP2D6): 7.59 ± 0.36%

SMILES: COc1cc2c(c(OC)c1OC)-c1ccc(O)c(=O)cc1[C@@H](NC(C)=O)CC2 [M4]
- peak area of the metabolite after incubation with CYP2C9 as a percentage of the total peak areas from all the CYPs (CYP2C9): 6.44 ± 0.02%
- peak area of the metabolite after incubation with CYP2A6 as a percentage of the total peak areas from all the CYPs (CYP2A6): 6.66 ± 2.12%
- peak area of the metabolite after incubation with CYP2B6 as a percentage of the total peak areas from all the CYPs (CYP2B6): 7.77 ± 0.57%
- peak area of the metabolite after incubation with CYP3A4 as a percentage of the total peak areas from all the CYPs (CYP3A4): 12.18 ± 0.70%
- peak area of the metabolite after incubation with CYP2C8 as a percentage of the total peak areas from all the CYPs (CYP2C8): 7.21 ± 0.40%
- peak area of the metabolite after incubation with CYP2D6 as a percentage of the total peak areas from all the CYPs (CYP2D6): 11.27 ± 3.15%

SMILES: COc1c(O)cc2c(c1OC)-c1ccc(OC)c(=O)cc1[C@@H](NC(C)=O)C=C2 [M5]
- peak area of the metabolite after incubation with CYP2C9 as a percentage of the total peak areas from all the CYPs (CYP2C9): 7.59 ± 0.00%
- peak area of the metabolite after incubation with CYP2A6 as a percentage of the total peak areas from all the CYPs (CYP2A6): 7.26 ± 8.64%
- peak area of the metabolite after incubation with CYP2B6 as a percentage of the total peak areas from all the CYPs (CYP2B6): 7.86 ± 0.00%
- peak area of the metabolite after incubation with CYP3A4 as a percentage of the total peak areas from all the CYPs (CYP3A4): 7.72 ± 15.62%
- peak area of the metabolite after incubation with CYP2C8 as a percentage of the total peak areas from all the CYPs (CYP2C8): 7.37 ± 0.00%
- peak area of the metabolite after incubation with CYP2D6 as a percentage of the total peak areas from all the CYPs (CYP2D6): 7.65 ± 11.17%

SMILES: COc1cc2c(c(O)c1OC)-c1ccc(OC)c(=O)cc1[C@@H](NC(C)=O)CC2 [M2]
- peak area of the metabolite after incubation with CYP2C9 as a percentage of the total peak areas from all the CYPs (CYP2C9): 5.57 ± 1.45%
- peak area of the metabolite after incubation with CYP2A6 as a percentage of the total peak areas from all the CYPs (CYP2A6): 2.64 ± 0.16%
- peak area of the metabolite after incubation with CYP2B6 as a percentage of the total peak areas from all the CYPs (CYP2B6): 4.42 ± 0.21%
- peak area of the metabolite after incubation with CYP3A4 as a percentage of the total peak areas from all the CYPs (CYP3A4): 47.73 ± 5.45%
- peak area of the metabolite after incubation with CYP2C8 as a percentage of the total peak areas from all the CYPs (CYP2C8): 3.69 ± 0.02%
- peak area of the metabolite after incubation with CYP2D6 as a percentage of the total peak areas from all the CYPs (CYP2D6): 3.23 ± 0.56%

SMILES: COc1cc2c(c(OC)c1O)-c1ccc(OC)c(=O)cc1[C@@H](NC(C)=O)CC2 [M1]
- peak area of the metabolite after incubation with CYP2C9 as a percentage of the total peak areas from all the CYPs (CYP2C9): 13.68 ± 5.29%
- peak area of the metabolite after incubation with CYP2A6 as a percentage of the total peak areas from all the CYPs (CYP2A6): 5.39 ± 0.90%
- peak area of the metabolite after incubation with CYP2B6 as a percentage of the total peak areas from all the CYPs (CYP2B6): 6.90 ± 0.52%
- peak area of the metabolite after incubation with CYP3A4 as a percentage of the total peak areas from all the CYPs (CYP3A4): 14.93 ± 1.41%
- peak area of the metabolite after incubation with CYP2C8 as a percentage of the total peak areas from all the CYPs (CYP2C8): 6.82 ± 0.03%
- peak area of the metabolite after incubation with CYP2D6 as a percentage of the total peak areas from all the CYPs (CYP2D6): 7.91 ± 0.60%

SMILES: COc1c(O)cc2c(c1O)-c1ccc(OC)c(=O)cc1[C@@H](NC(C)=O)CC2 [M8]
- peak area of the metabolite after incubation with CYP2C9 as a percentage of the total peak areas from all the CYPs (CYP2C9): 6.12 ± 3.22%
- peak area of the metabolite after incubation with CYP2A6 as a percentage of the total peak areas from all the CYPs (CYP2A6): 4.23 ± 0.62%
- peak area of the metabolite after incubation with CYP2B6 as a percentage of the total peak areas from all the CYPs (CYP2B6): 10.13 ± 3.38%
- peak area of the metabolite after incubation with CYP3A4 as a percentage of the total peak areas from all the CYPs (CYP3A4): 12.27 ± 1.54%
- peak area of the metabolite after incubation with CYP2C8 as a percentage of the total peak areas from all the CYPs (CYP2C8): 8.61 ± 4.55%
